Measured values: PubChem BioAssay AID342 (DTP/NCI, 2004)
Where “and” joins values, the source holds several entries; their conditions need not be identical. Equal values may be shown once.

Test system: Swiss mice, Sarcoma 180 sc, mean tumor weight T/C
Test: NCI In Vivo Anticancer Drug Screen. Data for tumor model Sarcoma 180 (subcutaneous) in Swiss mice
Details: endpoint: mean tumor weight, higher = larger tumour
Outline: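 Mice bearing transplanted tumors were treated with compound, and survival or tumor size was measured. Values are expressed as the treated-group measurement (T) divided by the vehicle-treated control measurement (C).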

[1] = dose: 8.0 mg/kg/injection, schedule: Q01DX007 (ip), vehicle: carboxymethylcellulose (CMC)
[2] = dose: 31.0 mg/kg/injection, schedule: Q01DX007 (ip), vehicle: carboxymethylcellulose (CMC)
[3] = dose: 50.0 mg/kg/injection, schedule: Q01DX007 (ip), vehicle: water

Cc1cc(N)c2cc(NC(=O)/C=C\c3ccccc3Cl)ccc2n1 was tested, and the T/C (dose: 11.0 mg/kg/injection, schedule: Q01DX007 (ip), vehicle: carboxymethylcellulose (CMC)) was 89 % of control, the T/C (dose: 17.0 mg/kg/injection, schedule: Q01DX007 (ip), vehicle: carboxymethylcellulose (CMC)) was 77 % of control and the T/C (dose: 25.0 mg/kg/injection, schedule: Q01DX007 (ip), vehicle: carboxymethylcellulose (CMC)) was 46 % of control.

With Cc1ccc(NCC2(/N=C/c3ccccc3)OC(CO)C(O)C2O)cc1 (configuration not stated) the T/C (dose: 111.0 mg/kg/injection, schedule: Q#A X014 (ip), vehicle: methylcellulose (MC)) was 71 % of control and 72 % of control and the T/C (dose: 250.0 mg/kg/injection, schedule: Q#A X014 (ip), vehicle: methylcellulose (MC)) was 67 % of control and 90 % of control.

For CCC1OCCN1C(C)C (configuration not stated), the T/C (dose: 20.0 mg/kg/injection, schedule: Q01DX007 (ip), vehicle: other) was 80 % of control, the T/C (dose: 33.0 mg/kg/injection, schedule: Q01DX007 (ip), vehicle: other) was 75 % of control and the T/C (dose: 55.5 mg/kg/injection, schedule: Q01DX007 (ip), vehicle: saline) was 79 % of control. The T/C (dose: 56.0 mg/kg/injection, schedule: Q01DX007 (ip), vehicle: other) was 63 % of control, the T/C (dose: 83.3 mg/kg/injection, schedule: Q01DX007 (ip), vehicle: saline) was 43 % of control and the T/C (dose: 84.0 mg/kg/injection, schedule: Q01DX007 (ip), vehicle: other) was 49 % of control. The T/C (dose: 125.0 mg/kg/injection, schedule: Q01DX007 (ip), vehicle: saline) was 21 % of control.

In the case of O=NN(CCCl)C(=O)NCCCl, the T/C (dose: 1.5 mg/kg/injection, schedule: Q01DX007 (ip), vehicle: saline) is reported as 27 % of control, the T/C (dose: 2.6 mg/kg/injection, schedule: Q01DX007 (ip), vehicle: saline) is reported as 79 % of control and the T/C (dose: 3.0 mg/kg/injection, schedule: Q01DX007 (ip), vehicle: saline) is reported as 44 % of control. The T/C (dose: 3.0 mg/kg/injection, schedule: Q01DX007 (oral), vehicle: carboxymethylcellulose (CMC)) was 60 % of control, the T/C (dose: 4.0 mg/kg/injection, schedule: Q01DX007 (ip), vehicle: carboxymethylcellulose (CMC)) was 75 % of control and the T/C (dose: 4.3 mg/kg/injection, schedule: Q01DX007 (ip), vehicle: saline) was 90 % of control. The T/C (dose: 6.0 mg/kg/injection, schedule: Q01DX007 (ip), vehicle: carboxymethylcellulose (CMC)) was 46 % of control and 58 % of control, the T/C (dose: 6.0 mg/kg/injection, schedule: Q01DX007 (ip), vehicle: saline) was 47 % of control and the T/C (dose: 6.0 mg/kg/injection, schedule: Q01DX007 (oral), vehicle: carboxymethylcellulose (CMC)) was 32 % of control. The T/C (dose: 7.2 mg/kg/injection, schedule: Q01DX007 (ip), vehicle: saline) was 62 % of control, the T/C [1] was 35 % of control and the T/C (dose: 10.0 mg/kg/injection, schedule: Q01DX007 (ip), vehicle: carboxymethylcellulose (CMC)) was 27 % of control. The T/C (dose: 12.0 mg/kg/injection, schedule: Q01DX007 (ip), vehicle: carboxymethylcellulose (CMC)) was 10 % of control, the T/C (dose: 12.0 mg/kg/injection, schedule: Q01DX007 (ip), vehicle: saline) was 36 % of control and 44 % of control and the T/C (dose: 12.0 mg/kg/injection, schedule: Q01DX007 (oral), vehicle: carboxymethylcellulose (CMC)) was 12 % of control. The T/C (dose: 20.0 mg/kg/injection, schedule: Q01DX007 (ip), vehicle: saline) was 24 % of control and the T/C (dose: 24.0 mg/kg/injection, schedule: Q01DX007 (oral), vehicle: carboxymethylcellulose (CMC)) was 6 % of control.

In the case of Nc1ncnc2c1ccn2C1OC(CO)C(O)C1O (configuration not stated), the T/C (dose: 0.62 mg/kg/injection, schedule: Q#A X014 (ip), vehicle: carboxymethylcellulose (CMC)) is reported as 90 % of control.

With Cc1ccccc1N(C=O)c1ccccc1C the T/C (dose: 120.0 mg/kg/injection, schedule: Q01DX007 (ip), vehicle: methylcellulose (MC)) was 164 % of control, the T/C (dose: 200.0 mg/kg/injection, schedule: Q01DX007 (ip), vehicle: methylcellulose (MC)) was 150 % of control and the T/C (dose: 1000.0 mg/kg/injection, schedule: Q01DX007 (ip), vehicle: methylcellulose (MC)) was 104 % of control.

O=C(O)C(=O)O.O=C([O-])C(=O)O.O=C([O-])C(=O)O.O=C([O-])C(=O)[O-].[K+].[U] was tested, and the T/C (dose: 7.5 mg/kg/injection, schedule: Q#A X014 (ip), vehicle: saline) was 51 % of control and 59 % of control and the T/C (dose: 11.25 mg/kg/injection, schedule: Q#A X014 (ip), vehicle: saline) was 21 % of control.

With CO[C@H]1CC[C@@]2(C)C(=CC[C@@H]3[C@@H]2CC[C@]2(C)C(=O)C(=O)C[C@@H]32)C1 the T/C (dose: 22.0 mg/kg/injection, schedule: Q01DX007 (sc), vehicle: steriod suspending solution) was 154 % of control and the T/C (dose: 33.0 mg/kg/injection, schedule: Q01DX007 (sc), vehicle: steriod suspending solution) was 74 % of control.

For CC[C@H](c1ccc(O)cc1)[C@@H](CC)c1ccc(O)cc1, the T/C (dose: 3.8 mg/kg/injection, schedule: Q01DX007 (sc), vehicle: steriod suspending solution) was 186 % of control, the T/C (dose: 7.5 mg/kg/injection, schedule: Q01DX007 (sc), vehicle: steriod suspending solution) was 67 % of control and the T/C (dose: 15.0 mg/kg/injection, schedule: Q01DX007 (sc), vehicle: steriod suspending solution) was 37 % of control and 43 % of control. For the same compound, the T/C (dose: 62.0 mg/kg/injection, schedule: Q01DX007 (sc), vehicle: steriod suspending solution) was 49 % of control and 67 % of control, the T/C (dose: 125.0 mg/kg/injection, schedule: Q01DX007 (sc), vehicle: steriod suspending solution) was 40 % of control and 43 % of control and the T/C (dose: 250.0 mg/kg/injection, schedule: Q01DX007 (sc), vehicle: steriod suspending solution) was 54 % of control.

For c1ccc(CNc2ncnc3[nH]ncc23)cc1, the T/C [1] was 87 % of control, the T/C (dose: 16.0 mg/kg/injection, schedule: Q01DX007 (ip), vehicle: carboxymethylcellulose (CMC)) was 106 % of control and the T/C [2] was 62 % of control.

For C/C=C1\CN(C)[C@H]2Cc3c([nH]c4ccccc34)[C@@H](c3cc4[nH]c5c(c4cc3OC)CCN3C[C@H]4C[C@H](CC)[C@H]3[C@@]5(C(=O)OC)C4)C[C@H]1C2C(=O)OC (some centres not stated), the T/C (dose: 35.0 mg/kg/injection, schedule: Q01DX007 (ip), vehicle: water) was 58 % of control, the T/C [3] was 74 % of control and 90 % of control and the T/C (dose: 70.0 mg/kg/injection, schedule: Q01DX007 (ip), vehicle: water) was 38 % of control and 59 % of control. The T/C (dose: 90.0 mg/kg/injection, schedule: Q01DX007 (ip), vehicle: water) was 30 % of control.

With O=c1[nH]cc(C(F)(F)F)c(=O)[nH]1 the T/C (dose: 200.0 mg/kg/injection, schedule: Q01DX007 (ip), vehicle: saline) was 63 % of control and the T/C (dose: 300.0 mg/kg/injection, schedule: Q01DX007 (ip), vehicle: saline) was 73 % of control.

In the case of O=C(Nc1ccc(Sc2ccc(N=Nc3c(O)c(S(=O)(=O)O)cc4cc(S(=O)(=O)O)ccc34)cc2)cc1)c1ccc(N=Nc2ccc3c(S(=O)(=O)O)cccc3c2O)cc1, the T/C (dose: 55.0 mg/kg/injection, schedule: Q01DX007 (ip), vehicle: carboxymethylcellulose (CMC)) is reported as 68 % of control and 78 % of control, the T/C (dose: 84.0 mg/kg/injection, schedule: Q01DX007 (ip), vehicle: carboxymethylcellulose (CMC)) is reported as 72 % of control and 75 % of control and the T/C (dose: 125.0 mg/kg/injection, schedule: Q01DX007 (ip), vehicle: carboxymethylcellulose (CMC)) is reported as 28 % of control. For the same compound, the T/C (dose: 188.0 mg/kg/injection, schedule: Q01DX007 (ip), vehicle: carboxymethylcellulose (CMC)) was 25 % of control.

With C=CCn1cnc2c(=S)nc[nH]c21 the T/C [2] was 86 % of control and the T/C (dose: 62.0 mg/kg/injection, schedule: Q01DX007 (ip), vehicle: carboxymethylcellulose (CMC)) was 54 % of control.

For CNC(=O)NO, the T/C [3] was 100 % of control, the T/C (dose: 100.0 mg/kg/injection, schedule: Q01DX007 (ip), vehicle: water) was 109 % of control and the T/C (dose: 200.0 mg/kg/injection, schedule: Q01DX007 (ip), vehicle: water) was 95 % of control. For the same compound, the T/C (dose: 400.0 mg/kg/injection, schedule: Q01DX007 (ip), vehicle: water) was 60 % of control.

C[C@]12CC[C@H](O)CC1=CC[C@@H]1[C@@H]2[C@@H](O)C[C@@]2(C)[C@H]1CC[C@]2(C)O was tested, and the T/C (dose: 25.0 mg/kg/injection, schedule: Q#A X014 (sc), vehicle: steriod suspending solution) was 87 % of control, the T/C (dose: 100.0 mg/kg/injection, schedule: Q#A X014 (sc), vehicle: steriod suspending solution) was 113 % of control and the T/C (dose: 200.0 mg/kg/injection, schedule: Q#A X014 (sc), vehicle: steriod suspending solution) was 76 % of control.

[O]=[V] was tested, and the T/C (dose: 7.5 mg/kg/injection, schedule: Q01DX007 (sc), vehicle: olive oil, sesame oil, peanut oil) was 94 % of control, the T/C (dose: 15.0 mg/kg/injection, schedule: Q01DX007 (sc), vehicle: olive oil, sesame oil, peanut oil) was 89 % of control and the T/C (dose: 30.0 mg/kg/injection, schedule: Q01DX007 (sc), vehicle: olive oil, sesame oil, peanut oil) was 100 % of control.

COc1ccc(CSc2ncnc3nc[nH]c23)cc1 was tested, and the T/C (dose: 55.5 mg/kg/injection, schedule: Q#A X014 (ip), vehicle: methylcellulose (MC)) was 48 % of control, the T/C (dose: 83.0 mg/kg/injection, schedule: Q#A X014 (ip), vehicle: methylcellulose (MC)) was 29 % of control and the T/C (dose: 125.0 mg/kg/injection, schedule: Q#A X014 (ip), vehicle: methylcellulose (MC)) was 14 % of control. For the same compound, the T/C (dose: 187.5 mg/kg/injection, schedule: Q#A X014 (ip), vehicle: methylcellulose (MC)) was 10 % of control.
